Test results from patent publication US10131652B2, “Pyrimidinyloxy benzene derivatives as herbicides” (E. I. DU PONT DE NEMOURS AND COMPANY, priority 2014, dated 2018).

Legend:
Type in all cases: in vivo
[1] = tested on: Italian ryegrass (Lolium multiflorum); assay: Test B pre-/postemergence plant response
Description: (§1) Seeds of plant species selected from bamyardgrass (Echinochloa crus-galli), kochia (Kochia scoparia), ragweed (common ragweed, Ambrosia elatior), Italian ryegrass (Lolium multiflorum), large (Lg) crabgrass (Digitaria sanguinalis), giant foxtail (Setaria faberii), momingglory (Ipomoea spp.), pigweed (Amaranthus retroflexus), velvetleaf (Abutilon theophrasti), wheat (Triticum aestivum), and corn (Zea mays) were planted into a blend of loam soil and sand and treated preemergence with a directed soil spray using test chemicals formulated in a non-phytotoxic solvent mixture which included a surfactant. At the same time, plants selected from these crop and weed species and also blackgrass (Alopecurus myosuroides), and galium (catchweed bedstraw, Galium aparine) were planted in pots containing the same blend of loam soil and sand and treated with postemergence applications of test chemicals formulated in the same manner. Plants ranged in height from 2 to 10 cm and were in the one- to two-leaf stage for the postemergence treatment. Treated plants and untreated controls were maintained in a greenhouse for approximately 10 days, after which time all treated plants were compared to untreated controls and visually evaluated for injury. Plant response ratings, summarized in Table B, are based on a 0 to 100 scale where 0 is no effect and 100 is complete control. A dash (-) response means no test result.

[2] = tested on: barnyardgrass (Echinochloa crus-galli); assay: Test B pre-/postemergence plant response
Description: as §1

corn (Zea mays) = assay: Test B pre-/postemergence plant response
Description: as §1

[3] = tested on: giant foxtail (Setaria faberii); assay: Test B pre-/postemergence plant response
Description: as §1

kochia (Kochia scoparia) = assay: Test B pre-/postemergence plant response
Description: as §1

[4] = tested on: pigweed (Amaranthus retroflexus); assay: Test B pre-/postemergence plant response
Description: as §1

[5] = tested on: ragweed (common ragweed, Ambrosia elatior); assay: Test B pre-/postemergence plant response
Description: as §1

[6] = tested on: wheat (Triticum aestivum); assay: Test B pre-/postemergence plant response
Description: as §1

[7] = tested on: blackgrass (Alopecurus myosuroides); assay: Test B postemergence plant response
Description: (§2) At the same time, plants selected from these crop and weed species and also blackgrass (Alopecurus myosuroides), and galium (catchweed bedstraw, Galium aparine) were planted in pots containing the same blend of loam soil and sand and treated with postemergence applications of test chemicals formulated in the same manner. Plants ranged in height from 2 to 10 cm and were in the one- to two-leaf stage for the postemergence treatment. Treated plants and untreated controls were maintained in a greenhouse for approximately 10 days, after which time all treated plants were compared to untreated controls and visually evaluated for injury. Plant response ratings, summarized in Table B, are based on a 0 to 100 scale where 0 is no effect and 100 is complete control. A dash (-) response means no test result.

[8] = tested on: galium (catchweed bedstraw, Galium aparine); assay: Test B postemergence plant response
Description: as §2

[9] = tested on: barnyardgrass (Echinochloa crus-galli); assay: Test C flooded paddy test plant response; conditions: Flood, 250 g ai/ha; scale of 0 to 100 where 0 is no effect and 100 is complete control; 13 to 15 days
Method: (§3) Plant species in the flooded paddy test selected from rice (Oryza sativa), small-flower umbrella sedge (Cyperus difformis), ducksalad (Heteranthera limosa), and bamyardgrass (Echinochloa crus-galli) were grown to the 2-leaf stage for testing. At time of treatment, test pots were flooded to 3 cm above the soil surface, treated by application of test compounds directly to the paddy water, and then maintained at that water depth for the duration of the test. Treated plants and controls were maintained in a greenhouse for 13 to 15 days, after which time all species were compared to controls and visually evaluated. Plant response ratings, summarized in Table C, are based on a scale of 0 to 100 where 0 is no effect and 100 is complete control. A dash (-) response means no test result.

[10] = tested on: ducksalad (Heteranthera limosa); assay: Test C flooded paddy test plant response; conditions: Flood, 250 g ai/ha; scale of 0 to 100 where 0 is no effect and 100 is complete control; 13 to 15 days
Method: as §3

rice (Oryza sativa) = assay: Test C flooded paddy test plant response; conditions: Flood, 250 g ai/ha; scale of 0 to 100 where 0 is no effect and 100 is complete control; 13 to 15 days
Method: as §3

[11] = tested on: small-flower umbrella sedge (Cyperus difformis); assay: Test C flooded paddy test plant response; conditions: Flood, 250 g ai/ha; scale of 0 to 100 where 0 is no effect and 100 is complete control; 13 to 15 days
Method: as §3

[12] = 125 g ai/ha, postemergence, 0 to 100 scale, 0 no effect, 100 complete control
[13] = Postemergence, 500 g ai/ha, 0 to 100 scale (0 no effect, 100 complete control)
[14] = Preemergence, 125 g ai/ha, 0 to 100 scale where 0 is no effect and 100 is complete control
[15] = Preemergence, 500 g ai/ha, 0 to 100 scale where 0 is no effect and 100 is complete control
[16] = 31 g ai/ha, Postemergence, 0 to 100 scale, 0 no effect, 100 complete control
[17] = Preemergence, 31 g ai/ha, 0 to 100 scale (0 no effect, 100 complete control)

| Structure (SMILES) | Plant response rating, Ryegrass, Italian [1, 12] | Plant response rating, Ryegrass, Italian [1, 14] | Plant response rating, Barnyardgrass [2, 12] | Plant response rating, Barnyardgrass [2, 14] | Plant response rating, Corn (corn (Zea mays); [12]) | Plant response rating, Foxtail, Giant [3, 12] | Plant response rating, Foxtail, Giant [3, 14] | Plant response rating, Kochia (kochia (Kochia scoparia); [12]) | Plant response rating, Kochia (kochia (Kochia scoparia); [14]) | Plant response rating, Pigweed [4, 12] | Plant response rating, Pigweed [4, 14] | Plant response rating, Ragweed [5, 12] | Plant response rating, Ragweed [5, 14] | Plant response rating, Wheat [6, 12] | Plant response rating, Blackgrass [7, 12] | Plant response rating, Galium [8, 12] | Barnyardgrass plant response rating [9] | Ducksalad plant response rating [10] | Rice plant response rating (rice (Oryza sativa)) | Sedge, Umbrella plant response rating [11] | further results |
| --- | --- | --- | --- | --- | --- | --- | --- | --- | --- | --- | --- | --- | --- | --- | --- | --- | --- | --- | --- | --- | --- |
| Cn1nncc1-c1ccccc1Oc1ncc(Cl)cn1 [Compound 52] | 0 | 0 | 0 | 0 | 0 | 0 | 0 | 20 | 0 | 30 | 40 | 20 | 0 | 0 | 0 | 40 | 0 | 0 | 0 | 0 | Plant response rating, Ryegrass, Italian [1, 13]: 0; Plant response rating, Ryegrass, Italian [1, 15]: 0; Plant response rating, Barnyardgrass [2, 13]: 10; Plant response rating, Barnyardgrass [2, 15]: 0; Plant response rating, Corn (corn (Zea mays); [13]): 10; Plant response rating, Foxtail, Giant [3, 13]: 0; Plant response rating, Foxtail, Giant [3, 15]: 0; Plant response rating, Kochia (kochia (Kochia scoparia); [13]): 50; Plant response rating, Kochia (kochia (Kochia scoparia); [15]): 30; Plant response rating, Pigweed [4, 13]: 60; Plant response rating, Pigweed [4, 15]: 50; Plant response rating, Ragweed [5, 13]: 20; Plant response rating, Ragweed [5, 15]: 0; Plant response rating, Wheat [6, 13]: 20; Plant response rating, Blackgrass [7, 13]: 10; Plant response rating, Galium [8, 13]: 50 |
| CC(C)(C)c1cc(-c2ccccc2Oc2ncc(Cl)cn2)no1 [Compound 59] | 0 | 0 | 10 | 0 | 0 | 10 | 10 | 0 | 0 | 40 | 0 | 0 | 0 | 0 | 0 | 40 | 0 | 0 | 0 | 0 | Plant response rating, Ryegrass, Italian [1, 13]: 0; Plant response rating, Ryegrass, Italian [1, 15]: 0; Plant response rating, Barnyardgrass [2, 13]: 10; Plant response rating, Barnyardgrass [2, 15]: 10; Plant response rating, Corn (corn (Zea mays); [13]): 10; Plant response rating, Foxtail, Giant [3, 13]: 50; Plant response rating, Foxtail, Giant [3, 15]: 60; Plant response rating, Kochia (kochia (Kochia scoparia); [13]): 20; Plant response rating, Kochia (kochia (Kochia scoparia); [15]): 0; Plant response rating, Pigweed [4, 13]: 50; Plant response rating, Pigweed [4, 15]: 30; Plant response rating, Ragweed [5, 13]: 0; Plant response rating, Ragweed [5, 15]: 0; Plant response rating, Wheat [6, 13]: 10; Plant response rating, Blackgrass [7, 13]: 40; Plant response rating, Galium [8, 13]: 90 |
| Cc1nc(-c2ccccc2Oc2ncc(Cl)cn2)co1 [Compound 70] | 0 | 0 | 0 | 0 | 0 | 0 | 0 | 0 | 0 | 20 | 0 | 0 | 0 | 0 | 0 | 0 | 0 | 0 | 0 | 0 | Plant response rating, Ryegrass, Italian [1, 16]: 0; Ryegrass, Italian plant response rating [1, 17]: 0; Plant response rating, Barnyardgrass [2, 16]: 0; Barnyardgrass plant response rating [2, 17]: 0; Plant response rating, Corn (corn (Zea mays); [16]): 0; Plant response rating, Foxtail, Giant [3, 16]: 0; Foxtail, Giant plant response rating [3, 17]: 0; Plant response rating, Kochia (kochia (Kochia scoparia); [16]): 0; Kochia plant response rating (kochia (Kochia scoparia); [17]): 0; Plant response rating, Pigweed [4, 16]: 10; Pigweed plant response rating [4, 17]: 0; Plant response rating, Ragweed [5, 16]: 0; Ragweed plant response rating [5, 17]: 0; Plant response rating, Wheat [6, 16]: 0; Plant response rating, Blackgrass [7, 16]: 0; Plant response rating, Galium [8, 16]: 0 |
| CC(C)n1cnc(-c2ccccc2Oc2ncc(Cl)cn2)n1 [Compound 73] | 0 | 0 | 0 | 0 | 0 | 0 | 0 | 0 | 0 | 10 | 0 | 0 | 0 | 0 | 0 | 10 | 0 | 0 | 0 | 0 | Plant response rating, Ryegrass, Italian [1, 16]: 0; Ryegrass, Italian plant response rating [1, 17]: 0; Plant response rating, Barnyardgrass [2, 16]: 0; Barnyardgrass plant response rating [2, 17]: 0; Plant response rating, Corn (corn (Zea mays); [16]): 0; Plant response rating, Foxtail, Giant [3, 16]: 0; Foxtail, Giant plant response rating [3, 17]: 0; Plant response rating, Kochia (kochia (Kochia scoparia); [16]): 0; Kochia plant response rating (kochia (Kochia scoparia); [17]): 0; Plant response rating, Pigweed [4, 16]: 0; Pigweed plant response rating [4, 17]: 0; Plant response rating, Ragweed [5, 16]: 0; Ragweed plant response rating [5, 17]: 0; Plant response rating, Wheat [6, 16]: 0; Plant response rating, Blackgrass [7, 16]: 0; Plant response rating, Galium [8, 16]: 0 |
| CCn1nc(C(F)(F)F)cc1-c1c(C#N)cccc1Oc1ncc(Cl)cn1 [Compound 89] | 0 | 0 | 30 | 70 | 30 | 40 | 90 | 70 | 0 | 90 | 100 | 10 | 0 | 0 | 20 | 50 | 0 | 30 | 0 | 80 | Plant response rating, Ryegrass, Italian [1, 16]: 0; Ryegrass, Italian plant response rating [1, 17]: 0; Plant response rating, Barnyardgrass [2, 16]: 10; Barnyardgrass plant response rating [2, 17]: 10; Plant response rating, Corn (corn (Zea mays); [16]): 10; Plant response rating, Foxtail, Giant [3, 16]: 10; Foxtail, Giant plant response rating [3, 17]: 40; Plant response rating, Kochia (kochia (Kochia scoparia); [16]): 50; Kochia plant response rating (kochia (Kochia scoparia); [17]): 0; Plant response rating, Pigweed [4, 16]: 60; Pigweed plant response rating [4, 17]: 100; Plant response rating, Ragweed [5, 16]: 10; Ragweed plant response rating [5, 17]: 0; Plant response rating, Wheat [6, 16]: 0; Plant response rating, Blackgrass [7, 16]: 10; Plant response rating, Galium [8, 16]: 10 |
